Experimental data as given in patent US7968591B2, “1,3-disubstituted 4-methyl-1H-pyrrole-2-carboxamides and their use in medicaments” (Gruenenthal GmbH, priority 2006, dated 2011).

Tested on: batrachotoxin (BTX) binding site of the sodium channel
Assay: Affinity for the batrachotoxin (BTX) binding site of the sodium channel
Settings: rat cerebrocortex synaptosomes, [3H]-Batrachotoxinin A20α benzoate 10 nM

Structure (SMILES) | BTX (Na+ channel) (% inhibition at 10 μM) [%]
COc1ccc(-c2c(C)cn(Cc3ccc(F)cc3)c2C(=O)NCCc2cccs2)cc1 [Example 35, 1-(4-fluorobenzyl)-3-(4-methoxyphenyl)-4-methyl-1H-pyrrole-2-carboxylic acid (2-thiophen-2-ylethyl)-amide] | 48
Cc1cn(Cc2ccc(C(F)(F)F)cc2)c(C(=O)NCCN2CCCC2)c1-c1ccco1 [Example 38, 3-furan-2-yl-4-methyl-1-(4-trifluoromethylbenzyl)-1H-pyrrole-2-carboxylic acid (2-pyrrolidin-1-ylethyl)-amide] | 94
COc1ccc(Cn2cc(C)c(-c3ccc(C)cc3)c2C(=O)N(C)CC(=O)OCc2ccccc2)cc1 [Example 39, {[1-(4-methoxybenzyl)-4-methyl-3-p-tolyl-1H-pyrrole-2-carbonyl]-methylamino}-acetic acid benzyl ester] | 74
COc1ccc(Cn2cc(C)c(-c3ccco3)c2C(=O)NCCC2CCCN2C)cc1 (stereo not shown) [Example 40, 3-furan-2-yl-1-(4-methoxybenzyl)-4-methyl-1H-pyrrole-2-carboxylic acid [2-(1-methylpyrrolidin-2-yl)-ethyl]-amide] | 81
CCOc1ccc(Br)cc1CN1CCN(C(=O)c2c(-c3ccccc3)c(C)cn2C)CC1 [Example 41, [4-(5-bromo-2-ethoxybenzyl)-piperazin-1-yl]-(1,4-dimethyl-3-phenyl-1H-pyrrol-2-yl)-methanone] | 77
COc1ccc(CN2CCN(C(=O)c3c(-c4ccco4)c(C)cn3Cc3ccccc3)CC2)cc1F [Example 42, (1-benzyl-3-furan-2-yl-4-methyl-1H-pyrrol-2-yl)-[4-(3-fluoro-4-methoxybenzyl)-piperazin-1-yl]-methanone] | 88
CCn1cc(C)c(-c2ccc(Cl)cc2)c1C(=O)NCCC(=O)OC(C)(C)C [Example 43, 3-{[3-(4-chlorophenyl)-1-ethyl-4-methyl-1H-pyrrole-2-carbonyl]-amino}-propionic acid tert.-butyl ester] | 31
COc1cccc(CNC(=O)c2c(-c3ccccc3)c(C)cn2Cc2ccccc2)c1 [Example 44, 1-benzyl-4-methyl-3-phenyl-1H-pyrrole-2-carboxylic acid 3-methoxybenzylamide] | 47
CCOc1ccc(Br)cc1CN1CCN(C(=O)c2c(-c3ccco3)c(C)cn2Cc2ccccc2)CC1 [Example 45, (1-benzyl-3-furan-2-yl-4-methyl-1H-pyrrol-2-yl)-[4-(5-bromo-2-ethoxybenzyl)-piperazin-1-yl]-methanone] | 89
Cc1ccccc1N1CCN(C(=O)c2c(-c3ccc(Cl)cc3)c(C)cn2C)CC1 [Example 46, [3-(4-chlorophenyl)-1,4-dimethyl-1H-pyrrol-2-yl]-(4-o-tolylpiperazin-1-yl)-methanone] | 55
CCOc1ccc(CCNC(=O)c2c(-c3ccc(OC)cc3)c(C)cn2Cc2ccc(F)cc2)cc1 [Example 47, 1-(4-fluorobenzyl)-3-(4-methoxyphenyl)-4-methyl-1H-pyrrole-2-carboxylic acid [2-(4-ethoxyphenyl)-ethyl]-amide] | 55
Cc1ccc(-c2c(C)cn(Cc3c(Cl)cccc3Cl)c2C(=O)N2CCC(O)CC2)cc1 [Example 48, [1-(2,6-dichlorobenzyl)-4-methyl-3-p-tolyl-1H-pyrrol-2-yl]-(4-hydroxypiperidin-1-yl)-methanone] | 36
COc1cc(OC)c(CN2CCN(C(=O)c3c(-c4ccc(C)cc4)c(C)cn3C)CC2)c(OC)c1 [Example 49, (1,4-dimethyl-3-p-tolyl-1H-pyrrol-2-yl)-[4-(2,4,6-trimethoxybenzyl)-piperazin-1-yl]-methanone] | 89
Cc1cn(Cc2ccc(F)cc2)c(C(=O)NCCN2CCOCC2)c1-c1ccco1 [Example 50, 1-(4-fluorobenzyl)-3-furan-2-yl-4-methyl-1H-pyrrole-2-carboxylic acid (2-morpholin-4-ylethyl)-amide] | 77
Cc1cn(Cc2ccccc2)c(C(=O)NCCc2ccc(F)cc2)c1-c1ccc(Cl)cc1 [Example 51, 1-benzyl-3-(4-chlorophenyl)-4-methyl-1H-pyrrole-2-carboxylic acid [2-(4-fluorophenyl)-ethyl]-amide] | 43
COc1ccc(-c2c(C)cn(C)c2C(=O)N2CCN(c3cc(C)ccc3C)CC2)cc1 [Example 52, [4-(2,5-dimethylphenyl)-piperazin-1-yl]-[3-(4-methoxyphenyl)-1,4-dimethyl-1H-pyrrol-2-yl]-methanone] | 76
COc1ccc(-c2c(C)cn(C)c2C(=O)NCCCn2ccnc2)cc1 [Example 53, 3-(4-methoxyphenyl)-1,4-dimethyl-1H-pyrrole-2-carboxylic acid (3-imidazol-1-ylpropyl)-amide] | 44

Structure (SMILES) | BTX (Na+ channel) (% inhibition at 10 μM) [%]
COc1ccc(-c2c(C)cn(Cc3ccc(F)cc3)c2C(=O)NCCc2cccc(C(F)(F)F)c2)cc1 [Example 54, 1-(4-fluorobenzyl)-3-(4-methoxyphenyl)-4-methyl-1H-pyrrole-2-carboxylic acid [2-(3-trifluoromethylphenyl)-ethyl]-amide] | 42
Cc1cnc(C(=O)N2CCN(C(=O)c3c(-c4ccc(Cl)cc4)c(C)cn3Cc3ccccc3F)CC2)cn1 [Example 55, [3-(4-chlorophenyl)-1-(2-fluorobenzyl)-4-methyl-1H-pyrrol-2-yl]-[4-(5-methylpyrazin-2-carbonyl)-piperazin-1-yl]-methanone] | 44
Cc1cn(C)c(C(=O)N2CCN(c3ccncc3)CC2)c1-c1ccc(Cl)cc1 [Example 57, [3-(4-chlorophenyl)-1,4-dimethyl-1H-pyrrol-2-yl]-(4-pyridin-4-ylpiperazin-1-yl)-methanone] | 76
Cc1cn(Cc2ccccc2F)c(C(=O)NCCCn2ccnc2)c1-c1ccc(Cl)cc1 [Example 58, 3-(4-chlorophenyl)-1-(2-fluorobenzyl)-4-methyl-1H-pyrrole-2-carboxylic acid (3-imidazol-1-ylpropyl)-amide] | 93
COc1ccc(CN2CCN(C(=O)c3c(-c4ccccc4)c(C)cn3C)CC2)cc1F [Example 59, (1,4-dimethyl-3-phenyl-1H-pyrrol-2-yl)-[4-(3-fluoro-4-methoxybenzyl)-piperazin-1-yl]-methanone] | 75
Cc1cn(C)c(C(=O)N2CCN(C3CCCCCC3)CC2)c1-c1ccco1 [Example 61, (4-cycloheptylpiperazin-1-yl)-(3-furan-2-yl-1,4-dimethyl-1H-pyrrol-2-yl)-methanone] | 64
COc1ccc(OCCNC(=O)c2c(-c3ccccc3)c(C)cn2Cc2ccccc2)cc1 [Example 62, 1-benzyl-4-methyl-3-phenyl-1H-pyrrole-2-carboxylic acid [2-(4-methoxyphenoxy)-ethyl]-amide] | 50
Cc1cn(Cc2ccc(F)cc2)c(C(=O)NCCCN(C)C)c1-c1ccco1 [Example 63, 1-(4-fluorobenzyl)-3-furan-2-yl-4-methyl-1H-pyrrole-2-carboxylic acid (3-dimethylamino-propyl)-amide] | 75
COc1ccc(-c2c(C)cn(Cc3ccc(F)cc3)c2C(=O)N2CCCC2CN2CCCC2)cc1 (stereo not shown) [Example 64, [1-(4-fluorobenzyl)-3-(4-methoxyphenyl)-4-methyl-1H-pyrrol-2-yl]-(2-pyrrolidin-1-ylmethylpyrrolidin-1-yl)-methanone] | 96
CCN(CC)CCCNC(=O)c1c(-c2ccc(Cl)cc2)c(C)cn1CC(C)C [Example 65, 3-(4-chlorophenyl)-1-isobutyl-4-methyl-1H-pyrrole-2-carboxylic acid (3-diethylamino-propyl)-amide] | 88
COc1ccc(F)c(CN2CCN(C(=O)c3c(-c4ccc(Cl)cc4)c(C)cn3C)CC2)c1 [Example 66, [3-(4-chlorophenyl)-1,4-dimethyl-1H-pyrrol-2-yl]-[4-(2-fluoro-5-methoxybenzyl)-piperazin-1-yl]-methanone] | 73
CCCCn1cc(C)c(-c2ccc(C)cc2)c1C(=O)N1CCN(Cc2cc(OC)ccc2OC)CC1 [Example 68, (1-butyl-4-methyl-3-p-tolyl-1H-pyrrol-2-yl)-[4-(2,5-dimethoxybenzyl)-piperazin-1-yl]-methanone] | 84
CCN(CC)CCN1CCN(C(=O)c2c(-c3ccc(C)cc3)c(C)cn2Cc2ccc(C)cc2)CC1 [Example 69, [4-(2-diethylamino-ethyl)-piperazin-1-yl]-[4-methyl-1-(4-methylbenzyl)-3-p-tolyl-1H-pyrrol-2-yl]-methanone] | 91
COc1ccc(-c2c(C)cn(C)c2C(=O)N2CCN(c3cccc(Cl)c3)CC2)cc1 [Example 70, [4-(3-chlorophenyl)-piperazin-1-yl]-[3-(4-methoxyphenyl)-1,4-dimethyl-1H-pyrrol-2-yl]-methanone] | 59
Cc1cn(Cc2ccccc2Br)c(C(=O)N2CCN(C(C)C)CC2)c1-c1ccc(Cl)cc1 [Example 71, [1-(2-bromobenzyl)-3-(4-chlorophenyl)-4-methyl-1H-pyrrol-2-yl]-(4-isopropylpiperazin-1-yl)-methanone] | 83
COc1ccc(-c2c(C)cn(Cc3ccc(F)cc3)c2C(=O)N2CCN(CCN(C)C)CC2)cc1 [Example 72, [4-(2-dimethylamino-ethyl)-piperazin-1-yl]-[1-(4-fluorobenzyl)-3-(4-methoxyphenyl)-4-methyl-1H-pyrrol-2-yl]-methanone] | 81
COc1ccc(CNC(=O)c2c(-c3ccc(Cl)cc3)c(C)cn2Cc2ccccc2F)c(OC)c1 [Example 73, 3-(4-chlorophenyl)-1-(2-fluorobenzyl)-4-methyl-1H-pyrrole-2-carboxylic acid 2,4-dimethoxybenzylamide] | 49
